# Results: patent US5935840A, “Activated recombinant adenovirus proteinases” (priority 1995, dated 1999)
# “Also recorded” adds a separate entry of the source. No end group written: not given here.
# Tests used:
# [1] = biological target: T1, Ad2 proteinase (rEP protein) (Human adenovirus C serotype 2, UniProt P03252); type: biochemical, human adenovirus type 2; settings: for Rate (pmol substrate min^-1) / Stimulation (fold): rate in presence of effector divided by rate in its absence: 8.3 nM rEP protein, 98 nM pVIc peptide; for Rate (pmol substrate min^-1): 1 μM (Leu-Arg-Gly-Gly-NH)2-rhodamine, effector at concentration giving maximal stimulation; for Stimulation (fold): rate in presence of effector divided by rate in its absence: 1 μM substrate; for Effector concentration that gave maximal stimulation of proteinase activity: moles of molecules per liter, 8.3 nM rEP, 98 nM pVIc
# T1 construct: Plasmid pT7AD23k6 contains the 204 codons of the Ad2 proteinase reading frame plus a translational termination codon; made in house; host or cells: E. coli BL21(DE3)
# Excerpt: The nature of the proteinase cofactor(s) was pursued with the aid of the second assay, which utilizes the substrate (Leu-Arg-Gly-Gly-NH)2 -rhodamine. The design of this substrate was based on two facts. (1) It was known that the proteinase present in disrupted Ad2 virions would cleave small peptides with sequence similar to that found at natural cleavage sites in adenovirus virion precursors (Webster et al., 1989). (2) Cleavage of either tetra-peptide sequence from the substituted rhodamine substrate produces a very large increase, up to a 3500-fold, in fluorescence. Under conditions where only a small fraction of the rhodamine substrate is cleaved, the increase in fluorescence is proportional to the amount of proteinase present and to the time of incubation. Thus, the fluorescence assay provides a quantitative method for assessing proteinase activity that is more sensitive convenient and rapid than the gel electrophoresis assay.
# After determining the identity of the two cofactors, reconstitution of adenovirus proteinase activity in vitro with purified components was accomplished. […] In (a), Assays in 1 ml contained 1.2 nM rEP protein, 11.9 pM Ad2 DNA and the indicated concentrations of pVI-c peptide. The rate of substrate hydrolysis is the rate in the reaction minus the rate with the rEP protein and Ad2 DNA alone which was 0.068 pmol min^-1. In (b), Assays in 1 ml contained 1.2 nM rEP protein, 36 nM pVI-c peptide and the indicated concentrations of Ad2 DNA. The rate of substrate hydrolysis is the rate in the reaction minus the rate with the rEP protein and pVI-c alone which was 2.76 pmol min^-1. The concentration of (Leu-Arg-Gly-Gly-NH)2 -rhodamine was 5 μM, and its rate of hydrolysis to Leu-Arg-Gly-Gly-NH-rhodamine was determined by measuring the increase in fluorescence every 3 minutes for 15 minutes. The pVI-c peptide was assembled in a peptide synthesizer.
# Assays were performed in 400 μl of Assay Buffer (50 mM Tris-HCl, pH 7.4, 25 mM NaCl, 10 mM octylglucoside, and 1 mM dithiothreitol). The concentration of the fluorogenic substrate, (Leu-Arg-Gly-Gly-NH)2 -rhodamine was 5 μM. When present, the number of disrupted virus particles was 10^10 and the amount of recombinant proteinase was 0.12 mAU280 nm. […] After 30 minutes at 37° C., a 360 μl aliquot of the reaction was added to 340 μl of Assay Buffer minus octylglucoside, and the increase in fluorescence was measured. The excitation wavelength was 492 nm and the emission wavelength was 523 nm, both with a bandwidth of 5 nm. The change in fluorescence, ΔF, is the magnitude of the fluorescence from the sample minus the magnitude of the fluorescence from an identical solution without enzyme.
# DNase-treated disrupted virus was obtained by incubating 2×10^10 disrupted virions in 20 μl containing 0.1M NaAc, pH 5.0, 5 mM MgCl2, and 55 μg/ml DNase I for 4 minutes at 25° C. Then, EDTA to 23 mM and dithiothreitol to 2.3 mM were added, and the reactions were heated at 56° C. for 1 minute to inactivate the DNase.
# For the assays shown in FIG. 8, the DNase reactions were diluted by the addition of 380 μl Assay Buffer containing the substrate, the proteinase and either 2×10^10 molecules of Ad2 DNA (+) or no DNA (-). After 30 minutes at 37° C., 360 μl of the reactions were added to 340 μl Assay Buffer minus octylglucoside and the increase in fluorescence was measured. The assays in (B) and (C) were identical to those in (A) except that in (B) H2ts1 virus was added after the DNase was inactivated (i-DNase) and in (C) no Dnase was present. In (D) recombinant proteinase plus 10^10 molecules of Ad2 DNA were preincubated for 10 minutes at 37° C. before adding substrate.
# .dagger. All assays contained 8.3 nM rEP protein, 98 nM pVIc peptide, and
# 1 μM (Leu--Arg--Gly--Gly--NH)2rhodamine. The rate of substrate
# [2] = tested on: Ad2 major core protein precursor, pVII; test: Assay of adenovirus proteinase activity in crude extracts: cleavage of [35S]-methionine-labeled pVII (SDS-PAGE, autoradiography); type: biochemical, adenovirus type 2; settings: for Proteinase activity (cleavage of pVII): log phase cells
# Description: The expression products of the above-described Ad2 and Ad12 proteinase plasmids were tested for their ability to cleave the Ad2 major core protein precursor, pVII, in crude extracts from adenovirus-infected cells. The extracts were obtained from human cells infected with the temperature-sensitive mutant Ad2 strain, H2ts1, which has a defective proteinase. As described below, adenovirus proteinase activity requires the presence of two cofactors. […] The recombinant proteinases were also characterized by peptide sequence analysis of their amino-termini.
# Bacterial extracts were incubated with the radiolabeled substrate (pVII). Samples were removed at different times and analyzed by SDS-PAGE and autoradiography. […] Appearance of the processed VII band and concurrent decrease of the precursor pVII band indicates proteinase activity. Radiolabeled proteins of Ad2 virions were run on the gel to indicate the positions of pVII, VII, and other virion components (lane a). Extracts from Ad2 -infected HeLa cells were assayed as a positive control for proteinase activity (lane b).
# Adenovirus proteinase activity was monitored by the cleavage of [^35 S]-methionine-labeled major core precursor (pVII) essentially as described (Bhatti and Weber, Biochem. Biophys. Res. Comm. 81: 973-797, (1978)). The proteinase substrate was prepared from Ad2Ad2tsl-infected HeLa cells grown at 39° C. and labeled with [^35 S]-methionine (200 μCi/plate) from approximately 28 to 30 hours after infection. Labeled cultures were harvested, washed twice in Phosphate Buffered Saline (PBS), resuspended in 1.0 ml of 10 mM sodium phosphate buffer, pH 7.4, per plate, and sonicated for 40 seconds using a water-cooled sonicator horn (Branson Sonic Power Co., Danbury, Conn.). The extract was then centrifuged at 12,000×g for 10 minutes, and the pellet was resuspended in 10 mM phosphate buffer.
# Extracts of Ad-infected cells, harvested 40 hours after infection at 37° C. were used as a source of viral proteinase. Harvested cultures were washed twice with PBS, resuspended in 10 mM phosphate buffer, frozen and thawed once, and centrifuged at 12,000×g for 10 minutes. Pellets were resuspended in 1.0 ml phosphate buffer, pH 7.4, per 10^6 infected cells and sonicated 4×10 seconds; samples were stored at -70° C. Bacterial extracts were prepared by lysozyme-EDTAtreatment of cultures harvested 2 hours after IPTG induction.
# Assays were performed by mixing equal volumes of [^35 S]-labeled substrate and test extract and incubating at 37° C. At different times, 25 μl samples were removed, mixed with 25 μl of SDS Sample Buffer, heated to 90° C., and analyzed by SDS-polyacrylamide gel electrophoresis and autoradiography as described (Anderson et al., J. Virol. 12: 241-252 (1973).
# Recombinant proteinase polypeptides were assayed for proteinase activity by incubating whole-cell extracts of BL21 (DE3), pT7AD23K5/BL21(DE3), and pT7AD23k6/BL21(DE3), prepared as described above, with extracts of [^35 S]-methionine-labeled Ad2 virion precursor polypeptides. Incubation of the labeled extract at 37° C. for up to 20 hours, alone or with an extract prepared from uninfected HeLa cells, produced little change in the pattern of labeled polypeptides.
# [3] = tested on: HEP1DBP; test: Cleavage of artificial protein substrate HEP1DBP (SDS-polyacrylamide gel electrophoresis); type: biochemical
# Excerpt: Recombinant protein substrates that resemble natural virion precursors, such as pVI, can be produced in E. coli by genetic engineering methods similar to those used for expression of recombinant adenovirus proteinase. The recombinant substrate may have an artificial leader sequence that can be removed by proteinase-mediated cleavage. The leader can be designed to aid in purification of the substrate; thus the recombinant substrate can be produced and purified much more efficiently than natural adenovirus substrates. Recombinant protein substrates also serve as prototypes of potential commercial products, showing that the adenovirus proteinase will remove an artificial leader sequence from a recombinant protein that is not related to any adenovirus protein. The first artificial protein substrate was called HEP1DBP. It consists of a 17 amino acid leader (Met-Ala-Ser-Met-Thr-Gly-His-His-His-His-His-His-Gly-Met-Ser-Gly-Gly-) (SEQ ID NO: 37) attached to the initiating methionine of the 232 amino acid DNA binding protein (DBP), of bacteriophage T7. The T7 DBP is the product of gene 2.5. The recombinant proteinase substrate is produced by induction of a pET expression plasmid called pT7HEP1DBP (also called pT7HIS2) (FIG. 7A and Example 11); the predicted sequence of the expressed substrate is given in Table 1. The leader sequence contains six consecutive histidine residues to permit purification by metal affinity chromatography in a manner analogous to purification of the adenovirus proteinase. Immediately preceding the methionine corresponding to the initiation site of the T7 DBP is the tetra-amino acid element -Met-Ser-Gly-Gly- (SEQ ID NO: 38). This segment corresponds to the proteinase recognition sequence in the adenovirus virion precursor polypeptide pVI. The size of the leader sequence was chosen so that the substrate precursor HEP1DBP, and the predicted major product after cleavage, the T7 DBP, could easily be distinguished by SDS-polyacrylamide gel electrophoresis.
# When purified HEP1DBP was incubated with disrupted wild-type adenovirus 2 virions, it was cleaved, as determined from the change in its mobility during SDS-polyacrylamide gel electrophoresis. No cleavage was observed when incubation was with disrupted H2ts1 virions alone.
# Plasmid pT7HEP1DBP (5346 bp) is a pET-3 derivative that expresses the […] T7 gene 2.5 protein (a single-stranded DNA binding protein) attached to a 17-amino acid leader sequence (FIG. 19). The 249-amino acid HEP1DBP polypeptide serves as an artificial substrate for the adenovirus EP; the leader peptide, MASMTGHHHHHHGMSGG- (SEQ ID NO: 37), ends with the Ad2 proteinase recognition sequence -MSGG- (SEQ ID NO: 38) [Anderson, C. […]
# T1 sequence (P03252 whole entry): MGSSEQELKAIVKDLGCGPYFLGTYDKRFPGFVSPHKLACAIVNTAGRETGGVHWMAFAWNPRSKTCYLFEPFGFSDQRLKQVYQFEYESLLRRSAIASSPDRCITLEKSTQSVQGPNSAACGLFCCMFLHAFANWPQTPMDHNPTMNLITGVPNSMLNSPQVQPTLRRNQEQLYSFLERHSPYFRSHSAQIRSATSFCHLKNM
compound,measurement,setting,value
Heparin,Rate (pmol substrate min^-1),[1],12.9 pmol substrate min^-1
same,Stimulation (fold): rate in presence of effector divided by rate in its absence,[1],4.7 fold
same,Substitution for Ad2 DNA as cofactor of proteinase activity,[1]; in vitro,substituted for Ad2 DNA
same,Effector concentration that gave maximal stimulation of proteinase activity,[1],33 nM
23K13: Ad2 proteinase variant with GHHHHHHNM at carboxy-terminus,Activity/Conditions,"[2]; Induced, log phase",Active
same,Proteinase activity (cleavage of pVII),[2]; extracts of IPTG-induced,as active as 23k6
N[C@@H](CCC(=O)O)C(=O)O [Glutamic acid],Rate (pmol substrate min^-1),[1],2.3 pmol substrate min^-1
same,Stimulation (fold): rate in presence of effector divided by rate in its absence,[1],< 1.0 fold
same,Effector concentration that gave maximal stimulation of proteinase activity,[1],780 nM
23K8: recombinant wild-type Ad2 proteinase from pT7AD23K8 (gene with AflII site),Activity/Conditions,"[2]; Induced, log phase",Active
same,Proteinase activity (cleavage of pVII),[2]; extracts of IPTG-induced,active
same,Cleavage of HEP1DBP,[3]; incubated together with disrupted H2ts1 virions,cleavage was obtained
same,Cleavage of HEP1DBP,"[3]; incubated with HEP1DBP alone, no added cofactors",no cleavage
"23K10: recombinant Ad2 proteinase from pT7AD23K10, same reading frame as pT7AD23k6",Activity/Conditions,"[2]; Induced, log phase",Active
same,Proteinase activity (cleavage of pVII),[2]; extracts of IPTG-induced,active
CGYGPKKKRKVGG [peptide similar in character to pVI-c],Substitution for the pVI-c peptide as cofactor,[1],did not substitute
"23K11: Ad2 proteinase variant, E5 QELKAIVK13 deleted, 194 amino acids",Proteinase activity (cleavage of pVII),"[2]; either uninduced, stationary or induced",No processing activity was detected; also recorded: No proteinase activity
same,Proteinase activity (cleavage of pVII),[2]; extracts of IPTG-induced,not active
same,Activity/Conditions,[2]; no growth conditions printed,Inactive
N[C@@H](CC(=O)O)C(=O)O [Aspartic acid],Rate (pmol substrate min^-1),[1],2.1 pmol substrate min^-1
same,Stimulation (fold): rate in presence of effector divided by rate in its absence,[1],< 1.0 fold
same,Effector concentration that gave maximal stimulation of proteinase activity,[1],1380 nM
"H2ts1: ts Ad2 proteinase with P to L mutation in codon 137, expressed from pT7AD23K18",Activity/Conditions,[2]; no growth conditions printed,Temperature-
same,EP activity,"[3]; DEAE flow-through fractions from pT7AD23K18/BL21(DE3) grown at 30° C., in the presence of H2ts1 virions, substrate not stated",No EP activity
